Legend:
Type in all cases: in vivo
[1] = test system: Adult female two-spotted mites (Tetranychus urticae (Koch)); assay: Two-spotted spider mite test on sprayed pinto bean leaves (about 20 hours); settings: concentration by weight in the formulation
Description: III. Adult female two-spotted mites (Tetranychus urticae (Koch) was tested by placing 50-75 mites on the bottom side of leaves of pinto bean plants. The leaves were sprayed with dilutions of an acetone solution of the test compound in water containing an emulsifier and kept under laboratory conditions for about 20 hours, at which time mortality counts were made. The tests were conducted employing several different dosage rates for each test compound.
(§1) In the case of each species of insect, the concentration of the test compound by weight in the formulation required to kill fifty percent of the test insects--i.e., the LC50 dosage--was determined.

[2] = test system: Houseflies (Musca domestica (Linne)); assay: Housefly spray test (mortality after 18-20 hours); settings: concentration by weight in the formulation
Description: I. Houseflies (Musca domestica (Linne)) were tested by placing 50 4- to 5-day old housflies into a spray cage and spraying with 0.6 ml of a solution of test compound. After spraying, the flies were anesthetized with CO2 and transferred to a recovery cage containing a milk pad for food. The cages were held for 18-20 hours after which mortality counts were made. Both dead and moribund flies were counted. The tests were conducted employing several different dosage rates for each test compound.
as §1

[3] = test system: Corn earworm larvae (Heliothis zea (Boddie)); assay: Corn earworm larvae test on sprayed broad bean plant (44-46 hours); settings: concentration by weight in the formulation
Description: V. Corn earworm larvae (Heliothis zea (Boddie)) were tested by spraying a broad bean plant with dilutions of an acetone solution of the test compound in water containing an emulsifier. Immediately after spraying, 5 larvae were transferred to the plant and held for 44-46 hours, at which time the dead and moribund larvae were counted. The tests were conducted employing several different dosage rates for each test compound.
as §1

[4] = test system: Pea aphids (Acyrthosiphon pisum (Harris)); assay: Pea aphid test on sprayed broad bean plants (living aphids counted at 18 to 20 hours); settings: concentration by weight in the formulation
Description: II. Pea aphids (Acyrthosiphon pisum (Harris)) were tested by placing about 100 aphids on broad bean plants. The plants were sprayed with dilutions of an acetone solution of the test compound in water containing an emulsifier and held in containers under laboratory conditions for 18 to 20 hours, at which time the living aphids in the containers were counted. The tests were conducted employing several different dosage rates for each test compound.
as §1

[5] = test system: Mosquito larvae (Anopheles albimanus (Weide)); assay: Mosquito larvae test in water (mortality after 18-22 hours); settings: in distilled water
Description: IV. Mosquito larvae (Anopheles albimanus (Weide)) were tested by placing 10 living and active mosquito larvae in a jar containing a 0.1 ml aliquot of a 1% acetone solution of the test compound thoroughly mixed with 100 ml of distilled water. After 18-22 hours, mortality counts were taken. Both dead and moribund larvae were counted as dead. […] The tests were conducted employing several different dosage rates for each compound.
as §1

Structure (SMILES)	LC50 Spider mite [1]	LC50 Housefly [2]	LC50 Corn Earworm [3]	LC50 Pea Aphid [4]	LC50 Mosquito Larvae [5]
COC(=O)NN(C(=O)Cl)c1cccc2c1OC(C)(C)C2 [Compound 1, 2-(2-chlorocarbonyl)-2-(2,3-dihydro-2,2-dimethylbenzofuran-7-yl)hydrazinecarboxlic acid methyl ester]	> 0.02 % w	> 0.5 % w	0.043 % w	0.00008 % w	0.016 ppm
CCOC(=O)NN(C(=O)Cl)c1cccc2c1OC(C)(C)C2 [Compound 2, 2-(2-chlorocarbonyl)-2-(2,3-dihydro-2,2-dimethyl-benzofuran-7-yl)hydrazinecarboxylic acid ethyl ester]	> 0.2 % w	> 0.5 % w	0.1 % w	0.0003 % w	> 0.1 ppm
COC(=O)NN(C(=O)Cl)c1ccc(C)c2c1OC(C)(C)C2 [Compound 4, 2-(2-chlorocarbonyl)-2-(2,3-dihydro-2,2,4-trimethylbenzofuran-7-yl)hydrazinecarboxylic acid methyl ester]	> 0.2 % w	> 0.5 % w	0.033 % w	0.0002 % w	0.02 ppm
COC(=O)NN(C(=O)Cl)c1cccc2c1OC(C)C2 (centres unmarked) [Compound 5, 2-(2-chlorocarbony)-2-(2,3-dihydro-2-methylbenzofuran-7-yl)-hydrazinecarboxylic acid methyl ester]	> 0.2 % w	> 0.5 % w	0.057 % w	0.0005 % w	0.039 ppm

— patent US4467104A, “Esters of 2-(2-chlorocarbonyl)-2-(2,3-dihydro-2-alkylbenzofuran-7-yl)-hydrazinecar boxylic acid” (Shell Oil Company, priority 1982, dated 1984)
